How the values were obtained:
[1] = system: penetrating brain injury (PTBI); test: Mitochondrial bioenergetics (Seahorse XFe96 Flux Analyzer) in injury core mitochondria after PTBI; assay type: in vivo, male Sprague-Dawley rats; conditions: compared to VEH
Method: (§1) Three experimental groups (N=4-8 male Sprague-Dawley rats/group) were studied. The first group was a sham group in which there was no penetrating brain injury and no treatment with resveratrol triacetate (RES). The second group was subject to a penetrating brain injury (via probe insertion and balloon inflation) and treated with dimethyl sulfoxide, DMSO (vehicle, VEH) and dosed at 15 minutes and 6 hours after injury and then once daily. The third group was subject to a penetrating brain injury and treated with RES and dosed at 15 minutes and six hours after injury and then once daily.
(§2) After 60 minutes of the last dosing at either 24 hours or 3 days post-injury, fresh viable mitochondria were isolated from the injury core of rats' brain. Homogenate fractions were collected for a glutathione assay.
(§3) Mitochondrial bioenergetics parameters were measured using a high-throughput procedure of the Seahorse XFe96 Flux Analyzer. The glutathione content was measured using a 5,5′-dithiobis-(2-nitrobenzoic acid) (DTNB) cycling method/assay. Antioxidant and oxidative stress were measured by a Western blot (WB) analysis.
(§4) Graphs and statistical analysis were performed using GraphPad Prism program. Data are presented as mean±SEM (standard error of means). ANOVA with Fisher post-hoc test was used to evaluate significant difference at * p<0.05 vs. Sham; $ p<0.05 vs. Vehicle (N=4-8 animals/group).

[2] = system: penetrating brain injury (PTBI); test: Total glutathione content (DTNB cycling assay) in brain homogenate after PTBI; assay type: in vivo, male Sprague-Dawley rats; conditions: 24 hours post-PTBI
Method: as §1, §2, §3, §4

[3] = system: penetrating brain injury (PTBI); test: Western blot of antioxidant, oxidative stress, membrane integrity and apoptosis markers after PTBI; assay type: in vivo, male Sprague-Dawley rats
Method: as §1, §2, §3, §4

[4] = cited from earlier work
[5] = in vivo; cited from earlier work

| Structure (SMILES) | bioenergetics in injured core mitochondria, as measured by ATP synthesis ([1]; 24 hours post-PTBI) | bioenergetics in injured core mitochondria ([1]; 3 days post-PTBI) | total glutathione (GSH) content [2] | Cytochrome C (CYT C) expression compared to VEH ([3]; 24 hours post-PTBI) | catalase (CAT) expression compared to VEH ([3]; 24 hours post-PTBI) | glyceraldehyde 3-phosphate dehydrogenase (GAPDH) expression compared to VEH ([3]; 24 hours post-PTBI) | lipid peroxidation marker 4-hydroxynonenal (4-HNE) adduct formation compared to VEH ([3]; 24 hours post-PTBI) | superoxide dismutase (SOD) expression compared to VEH ([3]; 24 hours post-PTBI) | thioredoxin (TRX) expression compared to VEH ([3]; 24 hours post-PTBI) | CAT expression compared to VEH ([3]; 3 days post-PTBI) | CYT C expression compared to VEH ([3]; 3 days post-PTBI) | SOD expression compared to VEH ([3]; 3 days post-PTBI) | anti-apoptotic protein Bcl-2 expression compared to VEH ([3]; 3 days post-PTBI) | voltage-dependent anion channels (VDAC) expression compared to VEH ([3]; 3 days post-PTBI) | water solubility [4] | half-life [5] |
| --- | --- | --- | --- | --- | --- | --- | --- | --- | --- | --- | --- | --- | --- | --- | --- | --- |
| CC(=O)Oc1ccc(/C=C/c2cc(OC(C)=O)cc(OC(C)=O)c2)cc1 [RES, 3′,5′,4′-tri-o-acetyl resveratrol] | trend of improved bioenergetics | non-significant trend of bioenergetics improvement | reversed PTBI-induced downregulation of total glutathione (GSH) content | +105% | −62% | −16.5% | non-significant improvement | +42% | +38% | −30% | +64% | +90% | +104% | +47% | – | – |
| Oc1ccc(C=Cc2cc(O)cc(O)c2)cc1 [Resveratrol] | – | – | – | – | – | – | – | – | – | – | – | – | – | – | low water solubility | 8 to 14 min |

— patent US20250057801A1, “Methods for Treating Traumatic Brain Injury” (The Government of the United States, as Represented by the …, priority 2023, published 2025)
